Assay results as given in patent US10731197B2, “Methods for detecting or quantifying CTP and CTP synthase activity” (Assistance Publique-Hopitaux de Paris, priority 2015, dated 2020).

Test system: CTP synthase
Test: Determination of CTP synthase Michaelis-Menten constants Km and Vmax (CTP formation kinetics from UTP, LC-MS/MS)
Assay type: biochemical, human
Conditions: initial UTP 0 to 6 mM
Protocol: The cell extracts may be obtained from cultured cells (primary cultures of cells, blasts or cell lines), from blood derived cells. Particularly, mononuclear cells (PBMCs, peripheral blood mononuclear cells) have been isolated from peripheral blood. The cells were washed with phosphate buffer 0.1 M KH2PO4, pH=7.4, and then collected in HEPES buffer 70 mM, pH=8.0, containing 10 mM NaF and protease inhibitors leupeptin and pepstatin to the concentration of 10 μg/mL. The cells were immediately placed in a bath of ethanol and dry ice, and then placed for at least 1 hour at −80° C. The cells were then centrifuged for 30 minutes at 10 000 g at 4° C. The supernatant, containing the cytosolic fraction, was collected and contained proteins were dosed. One to 10 µg of proteins, prepared as described above, were used for measuring CTP synthase activity in a reaction mixture containing 4 μM internal standard, 1.25 mM UTP, 1.25 mM ATP, 0.31 mM GTP, 12.5 mM glutamine, 1.25 mM phosphoenolpyruvate, 0.62 mM EDTA and 10 mM NaF in 15 μL complete HEPES buffer 70 mM, pH=8.0. Enzymatic reaction was carried out at 37° C. for 90 minutes and then, the reaction tubes were cooled on ice and the enzymatic reaction was stopped by adding 15 μL HCLO4 1 M. The reaction tubes were vortexed and centrifuged for 5 minutes at 12 000 g at 4° C. The supernatants were diluted with the aqueous mobile phase A and transferred to a 384-well plate. Analyses were performed using a Waters chromatographic UPLC system (Acquity™ UPLC) connected to a Waters TQD quadrupole mass spectrometer, operated in the electrospray positive ion mode with selected reaction monitoring (SRM). […] Waters HSS T3, 1.8 μm particle size, 2.1×100 mm column, which was maintained at 30° C. throughout the analysis. The flow rate was 0.5 mL/min. Mobile phase A was 5 mM dibutylamine acetate in water and mobile phase B, 5 mM dibutylamine acetate in acetonitrile. Three distinct mobile-phase gradients were used (see Tables 6a to 6c below). Then the enzymatic constants of Michaelis-Menten, Km and Vmax were determined by performing CTP formation kinetics during 90 minutes by using initial concentrations of UTP ranging from 0 to 6 mM. The values obtained for Vmax and Km were of the same order of magnitude as those previously published with radio-isotopic methods (FIG. 4).

Vmax (PBMCs activated, 90 minutes): 0.379 ± 0.091 nmol/min | Vmax (activated PBMC protein extracts, 90 min): 0.3789 ± 0.091 nmol/min | Vmax (resting PBMC protein extracts, 90 min): 0.083 ± 0.02 nmol/min | Vmax (resting cells, 90 minutes): 0.083 ± 0.02 nmol/min
SMILES: O=c1ccn([C@@H]2O[C@H](COP(=O)(O)OP(=O)(O)OP(=O)(O)O)[C@@H](O)[C@H]2O)c(=O)[nH]1 [UTP, uridine triphosphate]
